Experimental findings from US9072757B2, “Combination of an HMG-CoA reductase inhibitor and a farnesyl-pyrophosphate synthase inhibitor for the treatment of diseases related to the persistence and/or accumulation of prenylated proteins” (UNIVERSITE DE LA MEDITERRANEE AIX-MARSEILLE II, priority 2006, dated 2015) are described below.

One data set relates to prelamin A. Put plainly: Immunohistochemistry (immunomarking): level of prelamin A in healthy reference cells. In kind it is cell-based, human. The following applies: Pravastatin 100 μM for 12 hours, zoledronate 20 μM for 6 hours; in combination or alone (FIG. 3).
In a further data set the test system is healthy cells. Put plainly: Immunohistochemistry: deformed nuclei / toxicity on healthy reference cells. The data set is classed as cell-based, human. The following applies: Pravastatin 100 μM for 12 hours, zoledronate 20 μM for 6 hours; in combination or alone (FIG. 3).

Procedure for healthy cells: (§1) The cell lines are either reference fibroblasts AG16409 from the Coriell Institute, or fibroblasts from biopsies of patients suffering from Restrictive Dermopathy. They are cultivated at 37° C. in 5% CO2 in a P2 room.
(§2) A cell culture is trypsinised and the cells counted on a Neubauer cell.
(§3) Labtech-style culture wells (Nunc, ref 177399) are seeded, at the rate of 5×10^4 cells per well.
(§4) The complete culture medium is supplemented by the treatment or treatments (statin, NBP, or both), and the cells cultivated for an ad hoc time.
(§5) The cells are fixed in a paraformaldehyde 4% solution (in PBS) for 10 minutes at room temperature.
(§6) The primary antibody is diluted to 1/100th in 50 μl of incubation solution and put in contact with the cells for 1 hour at room temperature in a humid chamber.
Incubation with the secondary antibody takes place for 1 hour in 50 ml of incubation solution at room temperature in a humid chamber. The secondary antibodies are of two types: • Anti-mouse donkey, Jackson Immunoresearch, dilution to 1/100th • Anti-goat donkey, Jackson Immunoresearch, dilution to 1/200th […]
(§7) The cells are immersed in a drop of VectaShield (Vector), covered with an object-covering blade and observed on a fluorescence microscope (Leica DMR, Leica Microsystems), equipped with a coolSNAP (Princeton) camera system.
Procedure for prelamin A: as §1, §2, §3, §4, §5
After defrosting, the cells are incubated for 5 minutes at room temperature in a humid chamber in 50 μl of a permeabilisation solution:
as §6
Incubation with the secondary antibody takes place for 1 hour in 50 ml of incubation solution at room temperature in a humid chamber. […]
as §7

As to `CC[C@H](C)C(=O)O[C@H]1C[C@H](O)C=C2C=C[C@H](C)[C@H](CC[C@@H](O)C[C@@H](O)CC(=O)O)[C@H]21` [pravastatin], the “level of prelamin A produced in treated healthy cells” value in the data set on prelamin A was determined as 25%. Besides, in the data set with healthy cells, the “level of deformed nuclei (the sign of toxicity on the healthy cells)” value is reported as “approximately 12%”. As to “(1-hydroxy-2-imidazol-1-yl-phosphono-ethyl)phosphonic acid [zoledronate]”, the “level of prelamin A produced in treated healthy cells” value in the data set with prelamin A amounted to 15%.
